Assay results: US20140148498A1, “METHODS AND COMPOSITIONS FOR THE TREATMENT OF MARFAN SYNDROME AND ASSOCIATED DISORDERS” (THE JOHNS HOPKINS UNIVERSITY, priority 2011, published 2014)
Entries after “also recorded” stand apart in the source; their conditions may differ.

Tests used:
[1] = system: Fbn1^C1039G/+ mice; experiment: Aortic root growth by echocardiography, 7 months of treatment (Examples 3-5); assay type: in vivo; conditions: for Final absolute aortic root diameter: 7 months of treatment, mean +/- 2 SEM
Procedure: A head-to-head comparison of ACEi versus ARBs was performed. Fbn1^C1039G/+ mice and WT littermates were treated with hemodynamically equivalent doses (FIG. 8) of either the ACEi enalapril (10 to 15 mg/kg of body weight per day) or the ARB losartan (40 to 60 mg/kg per day) (R. D. Patten et al., Clin. Sci 104, 109 (2003)), beginning at 8 weeks of age, and were assessed with serial echocardiograms. […] It is noteworthy that losartan reduced aortic root growth in Fbn1^C1039G/+ mice, but had no effect in WT littermates (P=0.27). […] Whether AT2 signaling is needed to achieve losartan's full therapeutic benefit was assessed. AT2KO:Fbn1^C1039G/+ mice were treated with losartan from 8 weeks of age and followed by serial echocardiography until they were killed at 9 months of age (FIG. 2C).
(§1) All mice were cared for under strict compliance with the Animal Care and Use Committee of the Johns Hopkins University School of Medicine. The Fbn1^C1039G/+ and AT2KO lines were maintained n a pure C57BL/6 background (backcrossed for greater than 9 generations), allowing for valid comparisons. In order to further accommodate the potential for temporal- or background-specified variation, all comparisons were made between contemporary littermates when possible. The AT21C0 mice were obtained as a generous gift from Dr. Inagami (T. Ichiki et al., Nature 377, 748 (1995)). The Agtr2 gene resides on the X chromosome and therefore we used either male mice carrying the mutated allele (who are hemizygous) or homozygous females, both of which have been previously shown to be functionally null for the AT2 receptor (T. Ichiki et al., Nature 377, 748 (1995)). Mice were sacrificed with an inhalation overdose of halothane (Sigma-Aldrich, St. Louis). Mice underwent immediate laparotomy, descending abdominal aortic transection, and PBS (pH 7.4) was infused through the right and left ventricles to flush out the blood. Mice that were analyzed for Western Blot analysis had their proximal ascending aortas (root to right brachiocephalic trunk) immediately dissected out, flash frozen in liquid nitrogen and stored at −80d until further processing. Mice that were analyzed for aortic histology had latex injected under low pressure into the left ventricular apex until it was visible in the descending abdominal aorta. Mice that were analyzed for lung histology had their trachea intubated with a 20-gauge blunted needle, and 0.5% agar was infused under a low and constant pressure to gradually inflate the lungs. The trachea was then tied-off using vicryl and the needle was removed. Mice were fixed for 24 hours in 10% buffered formalin, after which the heart, aorta and lungs were removed and stored in 70% ethanol.
(§2) Mice were started on medication at 8 weeks of age and continued for 7 months. Losartan was dissolved in drinking water and filtered to reach a concentration of 0.6 g/L, giving an estimated daily dose of 40-60 mg/kg/day. Enalapril was dissolved in drinking water and filtered to reach a final concentration of 0.15 g/L, giving an estimated daily dose of 10-15 mg/kg/day. […] Spironolactone was dissolved in drinking water and filtered to give an estimated dose of 20 mg/kg/day, a dose previously shown to have in-vivo phenotypic benefit in cardiovascular disease states (S. Sakurabayashi-Kitade et al., Atherosclerosis 206, 54 (2009)). Placebo-treated animals received regular drinking water. Blood pressures were analyzed by taking 20 tail cuff blood pressures per day over 5 days in each mouse to habituate the mice to the tail cuff pressure system, and the blood pressures obtained on the last day were averaged. At least 4 mice for each treatment group were analyzed.
Nair hair removal cream was used on all mice the day prior to echocardiograms. All echocardiograms were performed on awake, unsedated mice using the Visualsonics Vevo 660 V1.3.6 imaging system and a 30 MHz transducer. Mice were imaged at baseline, 1 month after treatment and then every two months until the time of sacrifice. […]

[2] = system: Fbn1^C1039G/+ mice; experiment: Systolic blood pressure by tail cuff; assay type: in vivo; conditions: compared to placebo-treated animals, FIG. 8
Procedure: as §2

[3] = system: Fbn1^C1039G/+ mice; experiment: Aortic wall architecture score (VVG staining); assay type: in vivo; conditions: FIG. 9
Procedure: Latex-infused ascending aortas were transected just above the level of the aortic valve, and 2-3 mm transverse sections were mounted in 4% agar prior to paraffin fixation. Five micrometer aortic sections underwent Verhoeff-van Giesen (VVG) staining and were imaged at 40× magnification, using a Nikon Eclipse E400 microscope. Wall thickness of the aortic media was measured by a single blinded observer at 16 different locations around the most proximal ascending aortic ring and averaged. Wall architecture of 4 representative sections for each mouse was assessed by the same 3 blinded observers and graded on an arbitrary scale of 1 (indicating no breaks in the elastic fiber) to 5 (indicating diffuse fragmentation), and the results were averaged. Elastic fiber content was quantified in four separate representative images of each section of the most proximal ascending aorta by a single blinded observer, using NIS Elements Advanced Research (Nikon, Japan). The aortic media and the elastic fibers were individually outlined and their areas calculated. The respective areas were averaged from all the images of a given aortic section and the ratio of elastic fiber content to total aortic media was determined. Individual lobes of the lungs were mounted in 4% agar and fixed in paraffin. Five micrometer lung sections underwent hematoxylin and eosin staining and were imaged at 10× magnification, using a Nikon Eclipse E400 microscope. Five fields were analyzed for each lobe of each lung by a single blinded observer, and a mean linear intercept was calculated using a previously described method (J. P. Habashi et al., Science 312, 117 (2006); and E. R. Neptune et al., Nat. Genet. 33, 407 (2003)).

[4] = system: p38; experiment: Western blot of proximal ascending aorta: p38 activation (Examples 4-5); assay type: in vivo, mice
From the text: as §1, with “The trachea was then tied-off using vicryl and the needle was removed. Mice were fixed for 24 hours in 10% buffered formalin, after which the heart, aorta and lungs were removed and stored in 70% ethanol.” left out
Mouse aortic root and ascending aortas (aortic root excluding the aortic valve to origin of right brachiocephalic trunk) were harvested, snap-frozen in liquid nitrogen and stored at −80° C. until processed. […] Equal protein loading of samples was determined by a protein assay (BioRad, CA), and confirmed by probing with antibodies against β-Actin or GAPDH (Sigma, Mo.). […]

CCCCc1nc(Cl)c(CO)n1Cc1ccc(-c2ccccc2-c2nn[nH]n2)cc1 [losartan]
Final absolute aortic root diameter ([1]; FIG. 2B): 1.96+/−0.09 mm | Final absolute aortic root diameter ([1]; FIG. 2C): 1.96+/−0.09 mm | Aortic root growth over 7 months of treatment ([1]; versus placebo, drug in drinking water from 8 weeks of age): significant regression in growth; also recorded: regression in aortic size | Systolic blood pressure [2]: equal reduction in systolic blood pressure | Aortic wall architecture score [3]: significantly more beneficial than both placebo and enalapril treatment; also recorded: significant improvement | p38 activation ([4]; Fbn1^C1039G/+ mice, FIG. 13): do not affect p38 activation; also recorded: neither had any effect | p38 activation ([4]; treated AT2KO:Fbn1^C1039G/+ versus treated Fbn1^C1039G/+ mice, FIG. 14): no significant change; also recorded: no significant difference
